The record followed here is ChEMBL document CHEMBL5126538, “A score years' update in the synthesis and biological evaluation of medicinally important 2-pyridones” (Eur J Med Chem, 2022).

Assay [1] can be described thus: Inhibition of HIV reverse transcriptase. Also on record: species or system Human immunodeficiency virus.
A short description of assay [2]: Inhibition of quorum sensing system in Pseudomonas aeruginosa assessed as reduction in LasI gene expression measured per well.
For assay [3], the target named is Human immunodeficiency virus type 1 reverse transcriptase (Human immunodeficiency virus 1, UniProt Q72547). Kind of assay: Inhibition of HIV-1 reverse transcriptase using rC.dG as primer/template.
Assay [4] concerns HepG2. Kind of assay: Cytotoxicity against human HepG2 cells assessed as cell growth inhibition incubated for 72 hrs by SRB assay. It is filed as functional, cell-based. As to conditions: HepG2, 72 h. A general note: Sulforhodamine B stains cellular protein and so reports cell mass.
In assay [5] the target is Coagulation factor VII/tissue factor (Homo sapiens, UniProt P08709). Nature of the assay: Inhibition of TF/VIIA complex (unknown origin). In kind it is protein-complex assay.
Chain of Coagulation factor VII/tissue factor (P08709 61-212 limits assumed): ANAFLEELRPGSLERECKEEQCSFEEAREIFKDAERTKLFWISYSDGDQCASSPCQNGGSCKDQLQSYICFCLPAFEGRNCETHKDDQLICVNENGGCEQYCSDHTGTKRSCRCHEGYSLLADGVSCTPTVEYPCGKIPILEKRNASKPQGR
Chain of Coagulation factor VII/tissue factor (P08709 213-466 limits assumed): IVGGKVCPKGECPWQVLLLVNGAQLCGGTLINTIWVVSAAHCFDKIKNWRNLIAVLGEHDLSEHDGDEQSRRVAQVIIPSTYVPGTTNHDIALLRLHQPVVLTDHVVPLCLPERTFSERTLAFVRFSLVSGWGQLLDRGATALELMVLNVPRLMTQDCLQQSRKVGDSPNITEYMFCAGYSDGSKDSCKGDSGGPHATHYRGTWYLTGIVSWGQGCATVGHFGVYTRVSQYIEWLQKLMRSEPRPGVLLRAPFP
Chain of Coagulation factor VII/tissue factor (P13726 33-295 partner limits assumed): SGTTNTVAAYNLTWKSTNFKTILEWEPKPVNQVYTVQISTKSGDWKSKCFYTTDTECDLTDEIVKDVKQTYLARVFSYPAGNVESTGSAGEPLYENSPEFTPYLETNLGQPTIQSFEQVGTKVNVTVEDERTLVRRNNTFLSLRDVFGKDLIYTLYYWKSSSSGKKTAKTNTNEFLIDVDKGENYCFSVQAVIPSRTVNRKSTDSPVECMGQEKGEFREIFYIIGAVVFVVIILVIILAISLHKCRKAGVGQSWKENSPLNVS
Assay [6] concerns Staphylococcus aureus. Kind of assay: Antibacterial activity against Staphylococcus aureus assessed as zone of inhibition incubated for 24 hrs by well diffusion assay. In kind it is functional. For orientation: A growth-free zone around the sample is the usual read-out of agar diffusion tests.
The test system of assay [7] is Escherichia coli. Nature of the assay: Antibacterial activity against Escherichia coli assessed as zone of inhibition incubated for 24 hrs by well diffusion assay. It is filed as functional.
Assay [8] relates to Bacillus subtilis. Kind of assay: Antibacterial activity against Bacillus subtilis assessed as zone of inhibition incubated for 24 hrs by well diffusion assay. In kind it is functional.
For assay [9], the system named is Aspergillus niger. Kind of assay: Antifungal activity against Aspergillus niger assessed as zone of inhibition incubated for 24 hrs by well diffusion assay. In kind it is functional.
Assay [10] deals with Interleukin-6 (Homo sapiens) (UniProt P05231). Nature of the assay: Inhibition of IL-6 (unknown origin) relative to control. As to conditions: concentration not given here.
Chain of Interleukin-6 (Homo sapiens) (P05231 whole entry): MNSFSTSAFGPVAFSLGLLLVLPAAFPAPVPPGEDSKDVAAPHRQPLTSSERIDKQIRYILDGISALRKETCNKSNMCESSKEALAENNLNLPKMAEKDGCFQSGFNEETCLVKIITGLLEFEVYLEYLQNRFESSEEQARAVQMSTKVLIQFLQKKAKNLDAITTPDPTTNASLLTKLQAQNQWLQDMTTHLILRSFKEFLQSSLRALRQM
For assay [11], the system named is Human adenovirus 7. Kind of assay: Antiviral activity against Human adenovirus 7 infected in human HEp-2 cells assessed as reduction in viral growth incubated for 0.5 hrs followed by cell infection measured after 1 hr by crystal violet staining based assay relative to control. It is filed as functional. Details: scale not given: the % may be the effect or the level left. The settings on record: time 1.5 hrs.

Assay [12] relates to Hepatovirus A. Nature of the assay: Antiviral activity against Hepatitis A virus HM175 infected in monkey FRhK-4 cells assessed as reduction in viral growth incubated for 0.5 hrs followed by cell infection measured after 1 hr by crystal violet staining based assay relative to control. In kind it is functional. Details: scale not given: the % may be the effect or the level left. The settings on record: time 1.5 hrs.

Assay [13] relates to Coxsackievirus B4. Kind of assay: Antiviral activity against Coxsackievirus B4 infected in African green monkey BGM cells assessed as reduction in viral growth incubated for 0.5 hrs followed by cell infection measured after 1 hr by crystal violet staining based assay relative to control. It is filed as functional. The settings on record: time 1.5 hrs. Also on record: scale not given: the % may be the effect or the level left.

The test system of assay [14] is Human alphaherpesvirus 1. Kind of assay: Antiviral activity against […] type 1 infected in African green monkey Vero cells assessed as reduction in viral growth incubated for 0.5 hrs followed by cell infection measured after 1 hr by crystal violet staining based assay relative to control. It is filed as functional. Also on record: scale not given: the % may be the effect or the level left. As to conditions: time 1.5 hrs.

In general, IC50 refers to the concentration that gives 50% inhibition. In general, inhibition refers to the relative decrease from the control value, in per cent.

`CCc1cc(NCN2C(=O)c3ccccc3C2=O)c(O)nc1C`: in assay [1], the IC50 was 0.058 nM.

For `CCCc1cc(O)c(CC)c(=O)[nH]1`, in [2], the MIC was 6.35 µg. Same read-out and setting: with `Cc1c(O)cc(CC(C)C)[nH]c1=O` the figure was 6.35 µg; with `CC[C@@H](C)c1cc(O)c(C)c(=O)[nH]1`, 6.35 µg.

Compound `CCc1cc(NCc2cc3ccccc3o2)c(O)nc1C` showed an IC50 in assay [3] of 0.33 nM. On to `COC(=O)c1ccccc1-n1c(N)c(C(N)=O)c(-c2ccc(C)cc2)cc1=O`, for which the IC50 in assay [4] was found to be 1340 nM. For `CCc1c(O)cc(C(C)C)[nH]c1=O`, the MIC in assay [2] worked out at 6.35 µg. `CC(C)Nc1ccc(-c2cc(N)cc([N+](=O)[O-])c2)n(CC(=O)NCc2ccc(C(=N)N)cc2)c1=O` had an IC50 in assay [5] of 52 nM. For `Cc1[nH]c(=O)c(C#N)c(-c2ccccc2Br)c1C(=O)Nc1ccccc1`, the “diameter of the inhibition zone (DIZ)” value is recorded as 4.25 mm in assay [6], 3.75 mm in assay [7], 3.5 mm in assay [8] and 3 mm in assay [9].

`COc1ccc(-c2c(C(=O)Nc3ccc(O)cc3)c(N)[nH]c(=O)c2C#N)cc1` registered an inhibition in assay [10] of 65.1%. Consider `COC(=O)c1ccccc1-n1c(N)c(C#N)c(-c2ccc(N(C)C)cc2)cc1=O`, for which the IC50 in [4] was determined as 2410 nM. Consider `CC(C)Nc1ccc(-c2cc(C(=O)O)cc([N+](=O)[O-])c2)n(CC(=O)NCc2ccc(C(=N)N)cc2)c1=O`, for which, in assay [5], the IC50 is 118 nM. Consider `Cc1ccc(S(=O)(=O)Nn2c3c(cc(-c4nc5ccccc5s4)c2=O)CCCC3)cc1`, for which the Activity entry in assay [11], in [12], in [13] and in [14] was “<=70%” throughout. For `N#Cc1cc(-c2nc3ccccc3s2)c(=O)n(NS(=O)(=O)c2ccccc2)c1N`, the Activity entry in [11], in [12], in assay [13] and in assay [14] was “<=70%” each time.

Consider `O=c1c(-c2nc3ccccc3s2)cc2c(n1NS(=O)(=O)c1ccc(Cl)cc1)CCCC2`, for which the Activity entry in assay [11], in assay [12], in assay [13] and in [14] was “<=70%” throughout.

`CCc1cc(CCN2C(=O)c3ccccc3C2=O)c(O)nc1C`: the IC50 in [1] was 6.2 nM.
